The test concerns the target CK2A1 (CK2α/β) (Homo sapiens, UniProt P68400). As to the kind of experiment: CK2 kinase assay, CK2A1 (CK2α/β). The format is biochemical. The conditions noted are these: Table A; read-out: CK2A1 (CK2α/β) (IC50).
Sequence of CK2A1 (CK2α/β) (P68400 whole entry, species assumed): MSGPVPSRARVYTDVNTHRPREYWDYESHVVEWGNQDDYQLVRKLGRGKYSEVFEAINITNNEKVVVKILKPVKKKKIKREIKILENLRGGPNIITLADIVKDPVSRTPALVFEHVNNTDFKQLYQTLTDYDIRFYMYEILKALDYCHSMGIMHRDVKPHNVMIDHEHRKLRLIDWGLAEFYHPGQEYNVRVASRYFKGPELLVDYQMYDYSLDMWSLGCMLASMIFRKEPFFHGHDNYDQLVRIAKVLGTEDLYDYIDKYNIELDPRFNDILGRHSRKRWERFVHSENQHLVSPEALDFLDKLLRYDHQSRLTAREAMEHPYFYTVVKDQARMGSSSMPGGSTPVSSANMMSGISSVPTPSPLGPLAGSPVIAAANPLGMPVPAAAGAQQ
Sequence of CK2A1 (CK2α/β) (P67870 whole entry partner, species assumed): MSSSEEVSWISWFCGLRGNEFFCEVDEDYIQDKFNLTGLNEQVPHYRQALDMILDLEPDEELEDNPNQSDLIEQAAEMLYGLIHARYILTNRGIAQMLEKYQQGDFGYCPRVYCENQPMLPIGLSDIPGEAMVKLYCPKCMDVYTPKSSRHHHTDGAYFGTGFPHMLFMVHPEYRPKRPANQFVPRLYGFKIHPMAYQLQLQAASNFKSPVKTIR
`N#Cc1cc(CN2CCC(F)(F)CC2)c(Cl)c(Nc2nc(NC3CC3)c3ncc(C#N)n3n2)c1` [Example 477, 2-({2-chloro-5-cyano-3-[(4,4-difluoropiperidin-1-yl)methyl]phenyl}amino)-4-(cyclopropylamino)imidazo[2,1-f][1,2,4]triazine-7-carbonitrile]: the IC50 came to 2.43 nM.

Turning to `COC(=O)N1CCN(Cc2cc(C#N)cc(Nc3nc(NC4CC4)c4ncc(C#N)n4n3)c2Cl)CC1` [Example 478, methyl 4-[(2-chloro-5-cyano-3-{[7-cyano-4-(cyclopropylamino)imidazo[2,1-f][1,2,4]triazin-2-yl]amino}phenyl)methyl]piperazine-1-carboxylate], the IC50 worked out at 1.31 nM.

Turning to `N#Cc1cc(CNC2COC2)c(Cl)c(Nc2nc(NC3CC3)c3ncc(C#N)n3n2)c1` [Example 479, 2-[(2-chloro-5-cyano-3-{[(oxetan-3-yl)amino]methyl}phenyl)amino]-4-(cyclopropylamino)imidazo[2,1-f][1,2,4]triazine-7-carbonitrile], the IC50 came to 1.07 nM.

Take `CC(=O)N1CC(N2CCN(c3cc(C#N)cc(Nc4nc(NC5CC5)c5ncc(C#N)n5n4)c3Cl)CC2)C1` [Example 480, 2-({3-[4-(1-acetylazetidin-3-yl)piperazin-1-yl]-2-chloro-5-cyanophenyl}amino)-4-(cyclopropylamino)imidazo[2,1-f][1,2,4]triazine-7-carbonitrile]: the IC50 was determined as 0.86 nM.

For `N#Cc1cc(Nc2nc(NC3CC3)c3ncc(C#N)n3n2)c(Cl)c(N2CCN(C3CN(C(=O)C4(O)CC4)C3)CC2)c1` [Example 481, 2-[(2-chloro-5-cyano-3-{4-[1-(1-hydroxycyclopropane-carbonyl)azetidin-3-yl]piperazin-1-yl}phenyl)amino]-4-(cyclopropylamino)imidazo[2,1-f][1,2,4]triazine-7-carbonitrile], the IC50 worked out at 0.93 nM.

With `COCCC(=O)N1CC(N2CCN(c3cc(C#N)cc(Nc4nc(NC5CC5)c5ncc(C#N)n5n4)c3Cl)CC2)C1` [Example 482, 2-[(2-chloro-5-cyano-3-{4-[1-(3-methoxypropanoyl)azetidin-3-yl]piperazin-1-yl}phenyl)amino]-4-(cyclopropylamino)imidazo[2,1-f][1,2,4]triazine-7-carbonitrile], the IC50 is 1.52 nM.

As for `N#Cc1cc(Nc2nc(NC3CC3)c3ncc(C#N)n3n2)c(Cl)c(N2CCN(C3CN(C(=O)CC4CCOCC4)C3)CC2)c1` [Example 483, 2-{[2-chloro-5-cyano-3-(4-{1-[2-(oxan-4-yl)acetyl]azetidin-3-yl}piperazin-1-yl)phenyl]amino}-4-(cyclopropylamino)imidazo[2,1-f][1,2,4]triazine-7-carbonitrile], the IC50 was 0.87 nM.

In the case of `CC(C)(O)C(=O)N1CC(N2CCN(c3cc(C#N)cc(Nc4nc(NC5CC5)c5ncc(C#N)n5n4)c3Cl)CC2)C1` [Example 484, 2-[(2-chloro-5-cyano-3-{4-[1-(2-hydroxy-2-methylpropanoyl)azetidin-3-yl]piperazin-1-yl}phenyl)amino]-4-(cyclopropylamino)imidazo[2,1-f][1,2,4]triazine-7-carbonitrile], the IC50 stood at 0.81 nM.

As to `N#Cc1cc(Nc2nc(NC3CC3)c3ncc(C#N)n3n2)c(Cl)c(N2CCN(C3CN(C(=O)C4CC4)C3)CC2)c1` [Example 485, 2-({2-chloro-5-cyano-3-[4-(1-cyclopropanecarbonyl-azetidin-3-yl)piperazin-1-yl]phenyl}amino)-4-(cyclopropylamino)imidazo[2,1-f][1,2,4]triazine-7-carbonitrile], the IC50 was found to be 0.77 nM.

For `CS(=O)(=O)CC(=O)N1CC(N2CCN(c3cc(C#N)cc(Nc4nc(NC5CC5)c5ncc(C#N)n5n4)c3Cl)CC2)C1` [Example 486, 2-[(2-chloro-5-cyano-3-{4-[1-(2-methanesulfonylacetyl)azetidin-3-yl]piperazin-1-yl}phenyl)amino]-4-(cyclopropylamino)imidazo[2,1-f][1,2,4]triazine-7-carbonitrile], the IC50 came to 1.61 nM.

For `CC(O)C(=O)N1CC(N2CCN(c3cc(C#N)cc(Nc4nc(NC5CC5)c5ncc(C#N)n5n4)c3Cl)CC2)C1` (stereo not shown) [Example 487, 2-[(2-chloro-5-cyano-3-{4-[1-(2-hydroxypropanoyl)azetidin-3-yl]piperazin-1-yl}phenyl)amino]-4-(cyclopropylamino)imidazo[2,1-f][1,2,4]triazine-7-carbonitrile], the IC50 was 0.73 nM.

Turning to `N#Cc1cc(Nc2nc(NC3CC3)c3ncc(C#N)n3n2)c(Cl)c(N2CCN(C3CN(C(=O)CO)C3)CC2)c1` [Example 488, 2-[(2-chloro-5-cyano-3-{4-[1-(2-hydroxyacetyl)azetidin-3-yl]piperazin-1-yl}phenyl)amino]-4-(cyclopropylamino)imidazo[2,1-f][1,2,4]triazine-7-carbonitrile], the IC50 turned out to be 0.6 nM.

In the case of `N#Cc1cc(Nc2nc(NC3CC3)c3ncc(C#N)n3n2)c(Cl)c(N2CCN(C3CN(C(=O)C4CNCCO4)C3)CC2)c1` (stereo not shown) [Example 489, 2-[(2-chloro-5-cyano-3-{4-[1-(morpholine-2-carbonyl)azetidin-3-yl]piperazin-1-yl}phenyl)amino]-4-(cyclopropylamino)imidazo[2,1-f][1,2,4]triazine-7-carbonitrile], the IC50 came out at 1.4 nM.

With `CC(C)(O)CC(=O)N1CC(N2CCN(c3cc(C#N)cc(Nc4nc(NC5CC5)c5ncc(C#N)n5n4)c3Cl)CC2)C1` [Example 490, 2-[(2-chloro-5-cyano-3-{4-[1-(3-hydroxy-3-methylbutanoyl)azetidin-3-yl]piperazin-1-yl}phenyl)amino]-4-(cyclopropylamino)imidazo[2,1-f][1,2,4]triazine-7-carbonitrile], the IC50 was 0.94 nM.

`N#Cc1cc(Nc2nc(NC3CC3)c3ncc(C#N)n3n2)c(Cl)c(N2CCN(C3CN(C(=O)C(F)F)C3)CC2)c1` [Example 491, 2-[(2-chloro-5-cyano-3-{4-[1-(2,2-difluoroacetyl)azetidin-3-yl]piperazin-1-yl}phenyl)amino]-4-(cyclopropylamino)imidazo[2,1-f][1,2,4]triazine-7-carbonitrile]: the IC50 amounted to 1.33 nM.

For the molecule `CC(=O)NCC(=O)N1CC(N2CCN(c3cc(C#N)cc(Nc4nc(NC5CC5)c5ncc(C#N)n5n4)c3Cl)CC2)C1` [Example 492, N-(2-{3-[4-(2-chloro-5-cyano-3-{[7-cyano-4-(cyclopropylamino)imidazo[2,1-f][1,2,4]triazin-2-yl]amino}phenyl)piperazin-1-yl]azetidin-1-yl}-2-oxoethyl)acetamide], the IC50 was 0.64 nM.

With `N#Cc1cc(Nc2nc(NC3CC3)c3ncc(C#N)n3n2)c(Cl)c(N2CCN(C3CN(C(=O)CN4CCOCC4)C3)CC2)c1` [Example 493, 2-{[2-chloro-5-cyano-3-(4-{1-[2-(morpholin-4-yl)acetyl]azetidin-3-yl}piperazin-1-yl)phenyl]amino}-4-(cyclopropylamino)imidazo[2,1-f][1,2,4]triazine-7-carbonitrile], the IC50 turned out to be 2.03 nM.

For `CC(C)(CO)C(=O)N1CC(N2CCN(c3cc(C#N)cc(Nc4nc(NC5CC5)c5ncc(C#N)n5n4)c3Cl)CC2)C1` [Example 494, 2-[(2-chloro-5-cyano-3-{4-[1-(3-hydroxy-2,2-dimethylpropanoyl)azetidin-3-yl]piperazin-1-yl}phenyl)amino]-4-(cyclopropylamino)imidazo[2,1-f][1,2,4]triazine-7-carbonitrile], the IC50 is 1.99 nM.

For the molecule `N#Cc1cc(Nc2nc(NC3CC3)c3ncc(C#N)n3n2)c(Cl)c(N2CCN(C3CN(C(=O)CCO)C3)CC2)c1` [Example 495, 2-[(2-chloro-5-cyano-3-{4-[1-(3-hydroxypropanoyl)azetidin-3-yl]piperazin-1-yl}phenyl)amino]-4-(cyclopropylamino)imidazo[2,1-f][1,2,4]triazine-7-carbonitrile], the IC50 is 4.89 nM.

For the molecule `N#Cc1cc(Nc2nc(NC3CC3)c3ncc(C#N)n3n2)c(Cl)c(N2CCN(C3CN(C(=O)CCn4ccnc4)C3)CC2)c1` [Example 496, 2-{[2-chloro-5-cyano-3-(4-{1-[3-(1H-imidazol-1-yl)propanoyl]azetidin-3-yl}piperazin-1-yl)phenyl]amino}-4-(cyclopropylamino)imidazo[2,1-f][1,2,4]triazine-7-carbonitrile], the IC50 came to 1.82 nM.

Regarding `COCC(=O)N1CC(N2CCN(c3cc(C#N)cc(Nc4nc(NC5CC5)c5ncc(C#N)n5n4)c3Cl)CC2)C1` [Example 497, 2-[(2-chloro-5-cyano-3-{4-[1-(2-methoxyacetyl)azetidin-3-yl]piperazin-1-yl}phenyl)amino]-4-(cyclopropylamino)imidazo[2,1-f][1,2,4]triazine-7-carbonitrile], the IC50 came out at 0.82 nM.

Consider `N#Cc1cc(Nc2nc(NC3CC3)c3ncc(C#N)n3n2)c(Cl)c(N2CCN(C3CN(C(=O)[C@@H]4C[C@@H](O)CN4)C3)CC2)c1` [Example 498, 2-{[2-chloro-5-cyano-3-(4-{1-[(2S,4R)-4-hydroxypyrrolidine-2-carbonyl]azetidin-3-yl}piperazin-1-yl)phenyl]amino}-4-(cyclopropylamino)imidazo[2,1-f][1,2,4]triazine-7-carbonitrile], for which the IC50 came to 5.48 nM.

Consider `CC(C)(F)C(=O)N1CC(N2CCN(c3cc(C#N)cc(Nc4nc(NC5CC5)c5ncc(C#N)n5n4)c3Cl)CC2)C1` [Example 499, 2-[(2-chloro-5-cyano-3-{4-[1-(2-fluoro-2-methylpropanoyl)azetidin-3-yl]piperazin-1-yl}phenyl)amino]-4-(cyclopropylamino)imidazo[2,1-f][1,2,4]triazine-7-carbonitrile], for which the IC50 was 3.93 nM.

`N#Cc1cc(Nc2nc(NC3CC3)c3ncc(C#N)n3n2)c(Cl)c(N2CCN(C3CN(C(=O)C4(N)CC4)C3)CC2)c1` [Example 500, 2-[(3-{4-[1-(1-aminocyclopropanecarbonyl)azetidin-3-yl]piperazin-1-yl}-2-chloro-5-cyanophenyl)amino]-4-(cyclopropylamino)imidazo[2,1-f][1,2,4]triazine-7-carbonitrile]: the IC50 was determined as 3.92 nM.

For `CC(C)(N)CC(=O)N1CC(N2CCN(c3cc(C#N)cc(Nc4nc(NC5CC5)c5ncc(C#N)n5n4)c3Cl)CC2)C1` [Example 501, 2-[(3-{4-[1-(3-amino-3-methylbutanoyl)azetidin-3-yl]piperazin-1-yl}-2-chloro-5-cyanophenyl)amino]-4-(cyclopropylamino)imidazo[2,1-f][1,2,4]triazine-7-carbonitrile], the IC50 worked out at 2.64 nM.

Values taken from patent US9273057B2 (Bristol-Myers Squibb Company, priority 2012, dated 2016).
